Patent US9493468B2, “Antifungal 5,6-dihydro-4H-pyrrolo[1,2-a][1,4]benzo-diazepines and 6H-pyrrolo[1,2-a][1,4]benzodiazepines substituted with heterocyclic derivatives” (Janssen Pharmaceutica NV, priority 2011, dated 2016)

What was measured:
Type in all cases: cell-based
Aspergillus fumigatus = experiment: Antifungal activity in vitro, resazurin growth inhibition: Aspergillus fumigatus (B42928)
Summary of the method: (§1)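 Broth microdilution: RPMI-1640/L-Gln/2% glucose, MOPS pH 7.0±0.1; 10^3 cfu/well; top concentration 64 μM, 2- or 4-fold steps. Dermatophytes at 27° C., one week or more. Resazurin 0.005% (w/v) added, fluorescence 550/590 nm.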

Microsporum canis = experiment: Antifungal activity in vitro, resazurin growth inhibition: Microsporum canis (B68128)
Summary of the method: (§2)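 Dermatophytes incubated at 27° C. for one week or more with compound, max 64 μM, in RPMI-1640/MOPS pH 7.0±0.1, 10^3 cfu/well. Viability by resazurin-to-resorufin fluorescence, 550/590 nm.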

Cryptococcus neoformans = experiment: Antifungal activity in vitro, resazurin growth inhibition: Cryptococcus neoformans (B66663)
Summary of the method: as §1

Trichophyton rubrum = experiment: Antifungal activity in vitro, resazurin growth inhibition: Trichophyton rubrum (B68183)
Summary of the method: as §2

Sporothrix schenkii = experiment: Antifungal activity in vitro, resazurin growth inhibition: Sporothrix schenkii (B62482)
Summary of the method: as §1

[1] = test system: Trichophyton mentagrophytes; experiment: Antifungal activity in vitro, resazurin growth inhibition: Trichophyton mentagrophytes (B70554)
Summary of the method: as §2

Candida parapsilosis = experiment: Antifungal activity in vitro, resazurin growth inhibition: Candida parapsilosis (B66126)
Summary of the method: as §1

| SMILES | Inf. E: Aspergillus fumigatus B42928, pIC50 (Aspergillus fumigatus) | Inf. B: Microsporum canis B68128, pIC50 (Microsporum canis) | Inf. F: Cryptococcus neoformans B66663, pIC50 (Cryptococcus neoformans) | Inf. C: Trichophyton rubrum B68183, pIC50 (Trichophyton rubrum) | Inf. A: Sporothrix schenkii B62482, pIC50 (Sporothrix schenkii) | Inf. G: Trichophyton mentagrophytes B70554, pIC50 [1] | Inf. D: Candida parapsilosis B66126, pIC50 (Candida parapsilosis) |
| --- | --- | --- | --- | --- | --- | --- | --- |
| Clc1cccc2c1CNC(c1ccccn1)c1cccn1-2 (racemic) [Compound 11] | 4.31 | 4.73 | 4.93 | 4.71 | 4.49 | 4.72 | <4.19 |
| CCc1cc(C2=NCc3c(Cl)cccc3-n3cccc32)on1 [Compound 63] | <4.19 | <4.19 | <4.19 | 5.72 | <4.19 | 5.58 | <4.19 |
| COc1ccc2oc(C3NCc4c(Cl)cc(Cl)cc4-n4cccc43)cc2c1.Cl (racemic) [Compound 46] | <4.19 | 5.12 | <4.19 | <4.19 | <4.19 | <4.19 | <4.19 |
| Cc1cc(C2=NCc3ccccc3-n3cccc32)ccn1 [Compound 95] | <4.49 | <4.49 | <4.49 | 5.17 | <4.49 | 4.58 | <4.49 |
| COc1cccc2cc(C3=NCc4ccccc4-n4cccc43)oc12 [Compound 157] | <4.49 | 5.79 | <4.49 | 6.58 | <4.49 | 5.96 | 4.61 |
| Cc1ccc2oc(C3=NCc4c(Cl)cc(Cl)cc4-n4cccc43)cc2c1 [Compound 136] | <4.19 | 4.41 | <4.19 | 5.67 | <4.19 | <4.19 | <4.19 |
| Cl.c1ccc2c(c1)CNC(c1cc3ccccc3s1)c1cccn1-2 (racemic) [Compound 52] | 5.30 | 5.70 | 6.00 | 6.13 | 5.40 | 5.70 | <4.19 |
| Cc1nc(Cl)cc2cc(C3=NCc4c(Cl)cccc4-n4cccc43)oc12 [Compound 160] | 5.85 | 5.03 | 5.61 | 5.84 | <4.49 | 5.48 | <4.49 |
| Fc1cccc2c1CN=C(c1ccc3sc(C(F)(F)F)nc3c1)c1cccn1-2 [Compound 192] | <4.19 | <4.19 | 4.81 | 4.29 | <4.19 | 5.03 | <4.19 |
| Clc1cccc2c1CN=C(c1ccc3scc(Cl)c3c1)c1cccn1-2 [Compound 177] | <4.19 | <4.19 | 5.73 | <4.19 | <4.19 | <4.19 | <4.19 |
| CCc1csc(C2=NCc3c(Cl)cccc3-n3cccc32)n1 [Compound 68] | <4.19 | 4.91 | 4.38 | 5.58 | <4.19 | 4.80 | <4.19 |
| Cc1cccc2oc(C3=NCc4ccc(Cl)cc4-n4cccc43)cc12 [Compound 133] | <4.19 | <4.19 | 5.83 | <4.19 | <4.19 | <4.19 | <4.19 |
| CCc1cnc(C2=NCc3c(Cl)cc(Cl)cc3-n3cccc32)s1 [Compound 67] | <4.19 | 4.50 | <4.19 | 4.71 | <4.19 | <4.19 | <4.19 |
| Clc1cccc2c1CN=C(c1ccc3nsnc3c1)c1cccn1-2 [Compound 194] | <4.19 | <4.19 | <4.19 | 6.82 | <4.19 | 6.06 | <4.19 |
| Br.Clc1ccc2c(c1)-n1cccc1C(c1ccncc1)NC2 (racemic) [Compound 23] | <4.19 | 4.72 | 4.57 | 5.00 | <4.19 | 4.39 | <4.19 |
| Cl.Clc1cc(Cl)c2c(c1)-n1cccc1C(c1cc3ccccc3o1)NC2 (racemic) [Compound 31] | <4.19 | 5.59 | <4.19 | 5.31 | <4.19 | 4.87 | <4.19 |
| FC(F)(F)c1nc2cc(C3=NCc4c(Cl)cccc4-n4cccc43)ccc2s1 [Compound 193] | <4.19 | <4.19 | <4.19 | <4.19 | <4.19 | <4.19 | <4.19 |
| Cc1cccc2oc(C3=NCc4c(Cl)cccc4-n4cccc43)cc12 [Compound 132] | <4.49 | 4.59 | <4.49 | 5.54 | <4.49 | <4.49 | <4.49 |
| c1ccc2c(c1)CN=C(c1ccc3ncsc3c1)c1cccn1-2 [Compound 182] | 4.94 | 5.52 | 4.91 | 6.70 | <4.49 | 5.87 | 4.58 |
